Laboratory results as given in patent EP0513240B1, “LIQUID HARD SURFACE DETERGENT COMPOSITIONS CONTAINING ZWITTERIONIC DETERGENT SURFACTANT AND MONOETHANOLAMINE AND/OR BETA-AMINOALKANOL” (THE PROCTER & GAMBLE COMPANY, priority 1990, dated 1991).
Marks after values point to notes of the source that are not given here.

test: Solubility of selected diols in 20°C water; format: physicochemical; conditions: determined via laboratory measurements (values marked *)
Protocol: A particularly preferred type of solvent for these hard surface cleaner compositions comprises diols having from 6 to 16 carbon atoms in their molecular structure. Preferred diol solvents have a solubility in water of from about 0.1 to about 20 g/100 g of water at 20°C.

| Compound | Solubility |
| --- | --- |
| CCCCCCC(O)CO (stereo not shown) [1,2-Octanediol] | 1.0* g/100g H2O |
| OCC1CCC(CO)CC1 (stereo not shown) [1,4-Cyclohexanedimethanol] | 20.0* g/100g H2O |
| CC(O)(CO)c1ccccc1 (stereo not shown) [2-Phenyl-1,2-propanediol] | 12.0* g/100g H2O |
| OCC(O)c1ccccc1 (stereo not shown) [Phenyl-1,2-ethanediol] | 12.0* g/100g H2O |

test: not given; conditions: in 20°C water; values from published literature; cited from earlier work

| Compound | Solubility |
| --- | --- |
| CC(C)C(O)C(C)(C)CO (stereo not shown) [2,2,4-Trimethyl-1,3-pentanediol] | 1.9 g/100g H2O |
| CC(C)(O)CCC(C)(C)O [2,5-Dimethyl-2,5-hexanediol] | 14.3 g/100g H2O |
| CCCC(O)C(CC)CO (stereo not shown) [2-Ethyl-1,3-hexanediol] | 4.2 g/100g H2O |
